Test results taken from ChEMBL document CHEMBL1201862, “PubChem BioAssay data set” (2004).
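A five-concentration, 48-hour dose response in 96-well plates underlies each endpoint, interpolated linearly between surrounding concentrations. Abbreviation: GI50, concentration required for 50% inhibition of growth.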 Activity calls are given as the source filed them. Rule as the data show it: active = GI50 up to about 1.1 µM and inactive = higher.

Legend:
Test in all cases: NCI tumour cell line growth inhibition, 48 h
HCT-116 = system: HCT-116
IGROV-1 = system: IGROV-1
MDA-MB-231 = system: MDA-MB-231
SR = system: SR
SK-OV-3 = system: SK-OV-3
HCT-15 = system: HCT-15
UO-31 = system: UO-31
A549 = system: A549
RPMI-8226 = system: RPMI-8226
NCI-H460 = system: NCI-H460
K562 = system: K562
MDA-MB-435 = system: MDA-MB-435
OVCAR-5 = system: OVCAR-5
RXF 393 = system: RXF 393
MOLT-4 = system: MOLT-4
TK-10 = system: TK-10
SF-539 = system: SF-539
CAKI-1 = system: CAKI-1
CCRF-CEM = system: CCRF-CEM
EKVX = system: EKVX
SK-MEL-5 = system: SK-MEL-5
LOX IMVI = system: LOX IMVI
SW-620 = system: SW-620
OVCAR-4 = system: OVCAR-4
DU-145 = system: DU-145
OVCAR-8 = system: OVCAR-8
ACHN = system: ACHN
A498 = system: A498
HOP-62 = system: HOP-62
NCI/ADR-RES = system: NCI/ADR-RES
SK-MEL-28 = system: SK-MEL-28
MCF7 = system: MCF7
HL-60 = system: HL-60
SNB-75 = system: SNB-75
HCC 2998 = system: HCC 2998
MDA-N = system: MDA-N
T47D = system: T47D
SNB-19 = system: SNB-19
OVCAR-3 = system: OVCAR-3
M14 = system: M14
U-251 = system: U-251
786-0 = system: 786-0
UACC-257 = system: UACC-257
PC-3 = system: PC-3
HOP-92 = system: HOP-92
NCI-H522 = system: NCI-H522
SF-268 = system: SF-268
NCI-H23 = system: NCI-H23
Hs-578T = system: Hs-578T
Malme-3M = system: Malme-3M
HT-29 = system: HT-29
SK-MEL-2 = system: SK-MEL-2
SF-295 = system: SF-295
NCI-H226 = system: NCI-H226
KM12 = system: KM12
UACC-62 = system: UACC-62
COLO 205 = system: COLO 205

Compound: O=C1c2cc3c(cc2CC12Cc1ccc4c(c1C2=O)CCCC4)CCCC3 (centres undefined)
- GI50 (HCT-116): 27.7 µM (inactive)
- GI50 (IGROV-1): 80.7 µM (inactive)
- GI50 (MDA-MB-231): 48.3 µM (inactive)
- GI50 (SR): > 100 µM (inactive)
- GI50 (SK-OV-3): 32.8 µM (inactive)
- GI50 (HCT-15): > 100 µM
- GI50 (UO-31): > 100 µM (inactive)
- GI50 (A549): 82.6 µM (inactive)
- GI50 (RPMI-8226): > 100 µM (inactive)
- GI50 (NCI-H460): 97.9 µM (inactive)
- GI50 (K562): > 100 µM (inactive)
- GI50 (MDA-MB-435): > 100 µM (inactive)
- GI50 (OVCAR-5): > 100 µM (inactive)
- GI50 (RXF 393): 42 µM (inactive)
- GI50 (MOLT-4): > 100 µM (inactive)
- GI50 (TK-10): > 100 µM (inactive)
- GI50 (SF-539): 36.1 µM (inactive)
- GI50 (CAKI-1): > 100 µM (inactive)
- GI50 (CCRF-CEM): > 100 µM (inactive)
- GI50 (EKVX): > 100 µM (inactive)
- GI50 (SK-MEL-5): > 100 µM (inactive)
- GI50 (LOX IMVI): > 100 µM (inactive)
- GI50 (SW-620): > 100 µM (inactive)
- GI50 (OVCAR-4): 25.9 µM (inactive)
- GI50 (DU-145): > 100 µM (inactive)
- GI50 (OVCAR-8): 67 µM (inactive)
- GI50 (ACHN): 48.1 µM (inactive)
- GI50 (A498): 21.4 µM (inactive)
- GI50 (HOP-62): 50.6 µM (inactive)
- GI50 (NCI/ADR-RES): 44.7 µM (inactive)
- GI50 (SK-MEL-28): > 100 µM (inactive)
- GI50 (MCF7): > 100 µM (inactive)
- GI50 (HL-60): > 100 µM (inactive)
- GI50 (SNB-75): 69.8 µM (inactive)
- GI50 (HCC 2998): > 100 µM (inactive)
- GI50 (MDA-N): > 100 µM (inactive)
- GI50 (T47D): > 100 µM (inactive)
- GI50 (SNB-19): 40.8 µM (inactive)
- GI50 (OVCAR-3): 21.1 µM (inactive)
- GI50 (M14): > 100 µM (inactive)
- GI50 (U-251): 24 µM (inactive)
- GI50 (786-0): 20.1 µM (inactive)
- GI50 (UACC-257): > 100 µM (inactive)
- GI50 (PC-3): > 100 µM (inactive)
- GI50 (HOP-92): 21.4 µM (inactive)
- GI50 (NCI-H522): 85.7 µM (inactive)
- GI50 (SF-268): 50.2 µM (inactive)
- GI50 (NCI-H23): 79.1 µM (inactive)
- GI50 (Hs-578T): 61.7 µM (inactive)
- GI50 (Malme-3M): 21.5 µM (inactive)
- GI50 (HT-29): > 100 µM (inactive)
- GI50 (SK-MEL-2): 45.6 µM (inactive)
- GI50 (SF-295): 92.5 µM (inactive)

Compound: C[C@@]12[C@H]3CC[C@@H]1[C@H](O)C(=O)N2CC3
- GI50 (IGROV-1): > 100 µM (inactive)
- GI50 (MDA-MB-231): > 100 µM (inactive)
- GI50 (SR): > 100 µM (inactive)
- GI50 (SK-OV-3): > 100 µM (inactive)
- GI50 (HCT-15): > 100 µM
- GI50 (UO-31): > 100 µM (inactive)
- GI50 (A549): > 100 µM (inactive)
- GI50 (RPMI-8226): > 100 µM (inactive)
- GI50 (NCI-H460): > 100 µM (inactive)
- GI50 (K562): > 100 µM (inactive)
- GI50 (MDA-MB-435): > 100 µM (inactive)
- GI50 (OVCAR-5): > 100 µM (inactive)
- GI50 (RXF 393): > 100 µM (inactive)
- GI50 (MOLT-4): > 100 µM (inactive)
- GI50 (TK-10): > 100 µM (inactive)
- GI50 (SF-539): > 100 µM (inactive)
- GI50 (NCI-H226): > 100 µM (inactive)
- GI50 (CAKI-1): > 100 µM (inactive)
- GI50 (CCRF-CEM): > 100 µM (inactive)
- GI50 (EKVX): > 100 µM (inactive)
- GI50 (SK-MEL-5): > 100 µM (inactive)
- GI50 (LOX IMVI): > 100 µM (inactive)
- GI50 (SW-620): > 100 µM (inactive)
- GI50 (OVCAR-4): > 100 µM (inactive)
- GI50 (KM12): > 100 µM (inactive)
- GI50 (DU-145): > 100 µM (inactive)
- GI50 (OVCAR-8): > 100 µM (inactive)
- GI50 (ACHN): > 100 µM (inactive)
- GI50 (A498): > 100 µM (inactive)
- GI50 (HOP-62): > 100 µM (inactive)
- GI50 (NCI/ADR-RES): > 100 µM (inactive)
- GI50 (SK-MEL-28): > 100 µM (inactive)
- GI50 (MCF7): > 100 µM (inactive)
- GI50 (HL-60): > 100 µM (inactive)
- GI50 (SNB-75): > 100 µM (inactive)
- GI50 (HCC 2998): > 100 µM (inactive)
- GI50 (MDA-N): > 100 µM (inactive)
- GI50 (T47D): > 100 µM (inactive)
- GI50 (SNB-19): > 100 µM (inactive)
- GI50 (OVCAR-3): > 100 µM (inactive)
- GI50 (M14): > 100 µM (inactive)
- GI50 (U-251): > 100 µM (inactive)
- GI50 (786-0): > 100 µM (inactive)
- GI50 (UACC-62): > 100 µM (inactive)
- GI50 (UACC-257): > 100 µM (inactive)
- GI50 (PC-3): > 100 µM (inactive)
- GI50 (HOP-92): > 100 µM (inactive)
- GI50 (NCI-H522): > 100 µM (inactive)
- GI50 (SF-268): > 100 µM (inactive)
- GI50 (NCI-H23): > 100 µM (inactive)
- GI50 (Hs-578T): > 100 µM (inactive)
- GI50 (Malme-3M): > 100 µM (inactive)
- GI50 (HT-29): > 100 µM (inactive)
- GI50 (SK-MEL-2): > 100 µM (inactive)
- GI50 (SF-295): > 100 µM (inactive)
- GI50 (COLO 205): > 100 µM (inactive)
